{"source": "patent US20260325605A1", "about": "“INHIBITORS” (Zealand Pharma A/S, priority 2022, published 2026)", "key": {"[1]": {"test_system": "KLH-induced DTH ear swelling in rats", "experiment": "Example 11: Minimal effective dose in KLH-induced DTH model", "assay_type": "in vivo, rat (Lewis)", "protocol": "Healthy male Lewis rats aged 8-9 weeks were immunized on day 0 with 200 μL keyhole limpet hemocyanin (KLH) (from Sigma, cat.no. H7017) (4 mg/mL) emulsified in complete Freund's adjuvant (CFA) (Difco, cat.no. 263810) subcutaneously (SC) at the base of the tail.\nTo elicit a KLH-specific T cell-mediated local inflammation, rats were challenged intradermally at indicated timepoints (days 7, 9, 11 or 13 post-immunisation) with 40 μL KLH/NaCl 0.9% (2 mg/mL) in the left ear. Ear edemas were measured after 24-48 hrs and the right ear that was left untreated served as control. A schematic overview of the protocol is depicted in FIG. 1. […]\nThis study was conducted as described in example 8 with the difference that the rats were only challenged intradermally at days 7 or 11 post-immunisation (i.e. day 1 and day 5 after treatment) with 40 μL KLH/NaCl 0.9% (2 mg/mL) in the left ear. A schematic overview of the protocol is depicted in FIG. 5.\nThe doses of Kv1.3 inhibitor treatment able to reduce the DTH ear swelling response was investigated by comparing the response in rats (n=8/group) treated with vehicle to that of rats treated with different doses of peptide 100. Vehicle or peptide 100 dissolved in vehicle was administered SC (2 mL/kg) on day 6. The test dose of Kv1.3 inhibitor was 1, 3, 10, 30 or 100 nmol/kg. Test vehicle was 10 mM phosphate, 0.8% w/v NaCl, 0.05% w/v polysorbate20, pH 6.\nAs readout of efficacy, the thickness of the induced ear 24 hrs and 48 hrs after respective ear challenge was measured and compared to vehicle control. Ear thickness 24 hrs after challenge is shown in Table 15 and FIG. 8 and ear thickness 48 hrs after challenge is shown in Table 16 and FIG. 9."}, "[2]": {"test_system": "T-cell activation in rat whole blood", "experiment": "Example 4: IL-17A release in thapsigargin stimulated rat whole blood", "assay_type": "cell-based, rat (Lewis or Sprague-Dawley)", "conditions": "24 Hr, at least 2 replicates, unit inferred, read-out: IC50 (inhibition of IL-17A release)", "summary_of_the_method": "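Heparinised whole blood from naïve Lewis or Sprague-Dawley rats preincubated ≥5 min at RT with peptide, then stimulated with thapsigargin (40 μM stock added as one quarter of well volume) for 24 h at 37 °C. Supernatant IL-17A measured by ELISA; IC50 from curves normalised to stimulated and unstimulated controls, ≥2 replicates.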"}}, "data": [{"substance": "H-P[Nle]E[Nle]RC(1)SASVEC(2)KQKC(3)LAAIGSIFGKC(1)[Nle]NKKC(2)KC(3)YPR-OH [Peptide 100]", "values": [{"measurement": "Mean ear thickness of KLH-induced ear", "setting": "[1]; 1 nmol/kg s.c., challenge day 11, 24 hrs post-challenge, vehicle 0.902, p=0.0872", "value": "0.872±0.037", "unit": "mm"}, {"measurement": "Mean ear thickness of KLH-induced ear", "setting": "[1]; 1 nmol/kg s.c., challenge day 11, 48 hrs post-challenge, vehicle 0.876, p=0.1953", "value": "0.854±0.038", "unit": "mm"}, {"measurement": "Mean ear thickness of KLH-induced ear", "setting": "[1]; 3 nmol/kg s.c., challenge day 11, 24 hrs post-challenge, vehicle 0.902, p<0.0001", "value": "0.814±0.014", "unit": "mm"}, {"measurement": "Mean ear thickness of KLH-induced ear", "setting": "[1]; 3 nmol/kg s.c., challenge day 11, 48 hrs post-challenge, vehicle 0.876, p=0.0001", "value": "0.814±0.019", "unit": "mm"}, {"measurement": "Mean ear thickness of KLH-induced ear", "setting": "[1]; 10 nmol/kg s.c., challenge day 11, 24 hrs post-challenge, vehicle 0.902, p<0.0001", "value": "0.796±0.043", "unit": "mm"}, {"measurement": "Mean ear thickness of KLH-induced ear", "setting": "[1]; 10 nmol/kg s.c., challenge day 11, 48 hrs post-challenge, vehicle 0.876, p=0.0001", "value": "0.794±0.036", "unit": "mm"}, {"measurement": "Mean ear thickness of KLH-induced ear", "setting": "[1]; 30 nmol/kg s.c., challenge day 11, 24 hrs post-challenge, vehicle 0.902, p<0.0001", "value": "0.754±0.017", "unit": "mm"}, {"measurement": "Mean ear thickness of KLH-induced ear", "setting": "[1]; 30 nmol/kg s.c., challenge day 11, 48 hrs post-challenge, vehicle 0.876, p<0.0001", "value": "0.736±0.03", "unit": "mm"}, {"measurement": "Mean ear thickness of KLH-induced ear", "setting": "[1]; 100 nmol/kg s.c., challenge day 11, 24 hrs post-challenge, vehicle 0.902, p<0.0001", "value": "0.751±0.009", "unit": "mm"}, {"measurement": "Mean ear thickness of KLH-induced ear", "setting": "[1]; 100 nmol/kg s.c., challenge day 11, 48 hrs post-challenge, vehicle 0.876, p<0.0001", "value": "0.731±0.016", "unit": "mm"}, {"measurement": "Mean ear thickness of KLH-induced ear", "setting": "[1]; 24 hrs post-challenge, day 2 post-treatment, 100 nmol/kg SC", "value": 0.736, "unit": "mm"}, {"measurement": "Mean ear thickness of KLH-induced ear", "setting": "[1]; 24 hrs post-challenge, day 6 post-treatment, 1 nmol/kg SC", "value": 0.872, "unit": "mm"}, {"measurement": "Mean ear thickness of KLH-induced ear", "setting": "[1]; 24 hrs post-challenge, day 6 post-treatment, 3 nmol/kg SC", "value": 0.814, "unit": "mm"}, {"measurement": "Mean ear thickness of KLH-induced ear", "setting": "[1]; 24 hrs post-challenge, day 6 post-treatment, 10 nmol/kg SC", "value": 0.796, "unit": "mm"}, {"measurement": "Mean ear thickness of KLH-induced ear", "setting": "[1]; 24 hrs post-challenge, day 6 post-treatment, 30 nmol/kg SC", "value": 0.754, "unit": "mm"}, {"measurement": "Mean ear thickness of KLH-induced ear", "setting": "[1]; 24 hrs post-challenge, day 6 post-treatment, 100 nmol/kg SC", "value": 0.751, "unit": "mm"}, {"measurement": "Mean ear thickness of KLH-induced ear", "setting": "[1]; 48 hrs post-challenge, day 3 post-treatment, 100 nmol/kg SC", "value": 0.671, "unit": "mm"}, {"measurement": "Mean ear thickness of KLH-induced ear", "setting": "[1]; 48 hrs post-challenge, day 7 post-treatment, 1 nmol/kg SC", "value": 0.854, "unit": "mm"}, {"measurement": "Mean ear thickness of KLH-induced ear", "setting": "[1]; 48 hrs post-challenge, day 7 post-treatment, 3 nmol/kg SC", "value": 0.814, "unit": "mm"}, {"measurement": "Mean ear thickness of KLH-induced ear", "setting": "[1]; 48 hrs post-challenge, day 7 post-treatment, 10 nmol/kg SC", "value": 0.794, "unit": "mm"}, {"measurement": "Mean ear thickness of KLH-induced ear", "setting": "[1]; 48 hrs post-challenge, day 7 post-treatment, 30 nmol/kg SC", "value": 0.736, "unit": "mm"}, {"measurement": "Mean ear thickness of KLH-induced ear", "setting": "[1]; 48 hrs post-challenge, day 7 post-treatment, 100 nmol/kg SC", "value": 0.731, "unit": "mm"}, {"measurement": "minimal dose to obtain effect", "setting": "[1]; KLH-induced DTH model, s.c.", "value": 3, "unit": "nmol/kg"}, {"measurement": "Mean ear thickness of KLH-induced ear", "setting": "[1]; s.c. day 6, dose not given, challenge day 7, 24 hrs post-challenge, vehicle 0.849, p<0.0001", "value": "0.736±0.026", "unit": "mm"}, {"measurement": "Mean ear thickness of KLH-induced ear", "setting": "[1]; s.c. day 6, dose not given, challenge day 7, 48 hrs post-challenge, vehicle 0.777, p<0.0001", "value": "0.671±0.022", "unit": "mm"}, {"measurement": "IC50", "setting": "[2]", "value": 0.43, "unit": "nM"}]}]}
